Test results published in patent US5693812A, “Polymorphic forms of an angiotensin II antagonist” (priority 1996, dated 1997).
“Also recorded” adds a separate entry of the source. Structures can show the parent of a compound that is named as a salt. Each block holds one molecule with its values, some of them ahead of it.

Columns and labels:
Assay type in all cases: physicochemical
[1] = Heat of solution by solution calorimetry (Setaram C-80); conditions: potassium salt
Method: The heat of solution of different crystal forms of 3-[2'-(N-benzoyl)sulfonamidobiphenyl-4-yl]methyl-5,7-dimethyl-2-ethyl-3H-imidazo[4,5-b]pyridine potassium salt were studied at 30° C. The heat of solution is a measure of the crystal lattice energy. […] Heats of solution had to be conducted in a solvent which dissolved the samples quickly without conversion to another polymorph. This really limited solvents which could be used. Dimethylsulfoxide was chosen for this reason. The heats of solution therefore have contributions from the lattice energy of the solid as well as heat of dilution of lattice water in dimethylsulfoxide. The calorimeter therefore produces a complex signal that has an exothermic contribution from the water and an additional contribution from the energy required to dissolve the crystal. […] Additional heats of solution were determined in a mixed solvent system of 88% dimethylsulfoxide and 12% water. This system was used to minimize the contribution of moisture to the heat of solution.
(§1) The crystal forms were characterized and evaluated by measuring the heats of solution or solution calorimetry, solubility data, x-ray powder diffraction patterns (XRPD), differential scanning calorimetry (DSC) and thermogravimetric analysis (TGA). Heats of solution at 30° C. were obtained in the Setaram C-80 calvet calorimeter with sample size of 7-13 mg dissolved into 5 ml of 88% DMSO 12% water for a final concentration of 1.4-2.6 mg/ml. XRPD patterns were recorded using an automated Siemens X-ray diffractometer with copper tube K alpha radiation. DSC and TGA were conducted using a Perkin Elmer series 7 instrument with a scan rate of 10° C./min over the temperature range of 30°-300° C.

[2] = Crystal form conversion in acetonitrile, with or without water (XRPD); conditions: overnight, room temperature, potassium salt; for crystal form after stirring/shaking in acetonitrile: no added water; for crystal form after shaking in acetonitrile-water: acetonitrile with added water
From the text: Since all of the crystal forms of 3-[2'-(N-benzoyl)sulfonamidobiphenyl-4-yl]methyl-5,7-dimethyl-2-ethyl-3H-imidazo[4,5-b]pyridine potassium salt were changed to a single crystal form "D", in water, the effect of a non-aqueous solvent was studied. 3-[2'-(N-benzoyl)sulfonamidobiphenyl-4-yl]methyl-5,7-dimethyl-2-ethyl-3H-imidazo[4,5-b]pyridine potassium salt, Forms "A", "B", "C", and "D" were stirred overnight at room temperature in acetonitrile. The remaining solids were filtered and then vacuum dried overnight at room temperature. The crystallinity of the solids was examined by XRPD spectroscopy.
All of the crystal forms were converted to a single crystal form ("D") in water, but in acetonitrile to two different crystal forms. […] To explore the role of water in the above experiments, 3-[2'-(N-benzoyl)sulfonamidobiphenyl-4-yl]methyl-5,7-dimethyl-2-ethyl-3H-imidazo[4,5-b]pyridine potassium salt, form "C" (an anhydrous crystal form) was this time suspended in acetonitrile with added water (water was 10% of the solid weight). As a control experiment Form "C" was also suspended in acetonitrile with no added water. The samples were shaken overnight at room temperature. The remaining solids were filtered and vacuum dried overnight at room temperature.

[3] = Thermogravimetric analysis (TGA) weight loss / water content; conditions: potassium salt; for hydration state: TGA
Method: as §1, with “30°-300° C. Utilizing these techniques the thermodynamic stability of the polymorphs of 3-[2'-(N-benzoyl)sulfonamidobiphenyl-4-yl]methyl-5,7-dimethyl-2-ethyl-3H-imidazo[4,5-b]pyridine potassium salt was determined.” for “30°-300° C.”
Step K: Preparation of 3-[2'-(N-Benzyl)sulfonamidobiphenyl-4-yl]methyl-5,7-dimethyl-2-ethyl-3H-imidazo[4,5-b]pyridine potassium salt--(Forms I, Id and W) [drawing 13] In a 72-L four-necked flask fitted with an overhead stirrer and a reflux condenser, 3-[2'-(N-benzyl)sulfonamidobiphenyl-4-yl]methyl-5,7-dimethyl-2-ethyl-3H-imidazo[4,5-b]pyridine 1 (5.04 kg, 9.6 mol), methanol (14.5 L) and water (2.5 L) are mixed. The slurry is warmed to 62° C. under a nitrogen atmosphere and 1.94M potassium hydroxide (4.96 L, 9.61 mol) is added to the slurry at 62° C. over 1.5 hours to provide a homogeneous solution. Isopropyl acetate (13.83 L) is then added at 65° C. and the mixture is warmed to 70° C. The homogeneous solution is filtered at 70° C. to remove any particulates that are present. The filtrate is diluted with isopropyl acetate (1.3 L), methanol (0.6 L) and water (0.1 L). […] The homogeneous mixture is cooled to 52° C. over 2 hours, whereupon potassium salt seed of form "I" (140 g) is added. This mixture becomes cloudy after 30 min. The mixture is aged for 10 hours at 52° C. The white slurry is cooled to 48° C. over 1 hour and stirred for 3 hours. Finally, the crystallization mixture is cooled to 0° C. at a rate of 1° C./12.5 min. and aged for 2 hours at 0° C. […] The solid is centrifuged at 0° C. and displacement-washed with a mixture of 2:2:1 cold (0° C.) isopropyl acetate/methanol/water (5.65 L) followed by isopropyl acetate (2.3 L). The solid is semi-dried to a TG of 10-15% by spin drying. The mother liquors contain 21 wt % of 3-[2'-(N-benzyl)sulfonamidobiphenyl-4-yl]methyl-5,7-dimethyl-2-ethyl-3H-imidazo[4,5-b]pyridine potassium salt. At this stage, the crystal form of the product is form "W". The product is powdered by passing through a screen (size=12). The solid is dried by passing dry nitrogen over the solid under vacuum at 22° C. for 5 hours to yield 4.55 kg of 3-[2'-(N-benzyl)sulfonamidobiphenyl-4-yl]methyl-5,7-dimethyl-2-ethyl-3H-imidazo[4,5-b]pyridine potassium salt as the form "I" with a purity of 99.7% (assay-HClO4 titration) and TG of 7-10%. Generally, the wet cake consists of residual water, methanol and isopropyl acetate. The K-salt is considered dry when <0.05% methanol and isopropyl acetate are detected by ^1 H NMR. The product is further powdered by passing the solid through a Quadro Comil (model 197s, screen size=1143 mm round impeller) to yield 4.5 kg. The product is dried to a TG of 4.6-5.5% by the passage of dry nitrogen over the solid under vacuum at 22° C. After 10 hours, 4.24 kg (78%) of the potassium salt as the form "I" is obtained with a TG of […] (99.7 wt % by titration). The water content can be monitored by TG analysis. The TG of the potassium salt of form "I" is 4.6-5.5%. The crystal form is monitored by X-ray analysis. When the potassium salt is over dried, the crystal form converts to form "Id" (TG<4.6%). […]

[4] = Equilibrium solubility in water at room temperature; conditions: room temperature
[5] = Crystal form stability on heating
[6] = Crystal form stability in water (XRPD of remaining solid); conditions: room temperature, potassium salt
From the text: [13) S. R. Byre. "Solid State Chemistry of Drugs." Academic Press, New York, 1982.] […] Recrystallization of any of these lots from solvents like ethanol, methanol, isopropanol, acetone, etc. gave new crystal forms different from the original forms. […] Solubility in water at room temperature was one of these techniques. The equilibrium solubility in water, at room temperature for five polymorphs (Forms "B", "C", "D", "F", and "G") were the same (Table 1). When the remaining solids were filtered, air dried or vacuum dried overnight at room temperature the XRPD patterns had changed from the initial patterns and all were exactly the same. These experiments indicate that all of the crystal forms converted in water at room temperature to a new crystalline form designated […].
The remaining form "I" solid after equilibrium solubility studies in water was removed by filtration and vacuum dried overnight at room temperature.
After the discovery of form "I", form "D" could no longer be isolated in our laboratory. TGA studies indicate that form "I" of 3-[2'-(N-benzoyl)sulfonamidobiphenyl-4-yl]methyl-5,7-dimethyl-2-ethyl-3H-imidazo[4,5-b]pyridine potassium salt is a dihydrate (FIG. 4).

Structure (SMILES): CCc1nc2c(C)cc(C)nc2n1Cc1ccc(-c2ccccc2S(=O)(=O)NC(=O)c2ccccc2)cc1 [Form A, 3-[2'-(N-benzoyl)sulfonamidobiphenyl-4-yl]methyl-5,7-dimethyl-2-ethyl-3H-imidazo[4,5-b]pyridine potassium salt]
ΔH solution DMSO at 30° C. ([1]; 30° C., listed as A): 4.92 ± 0.47 J/g
crystal form after stirring/shaking in acetonitrile ([2]; listed as A): converted to a new crystal form ("I"); also recorded: changed to form "I"
% Weight Loss (Δ 30-150° C. by TGA) ([3]; listed as A): 3.4%
hydration state ([3]; listed as A): hydrated

Structure (SMILES): CCc1nc2c(C)cc(C)nc2n1Cc1ccc(-c2ccccc2S(=O)(=O)NC(=O)c2ccccc2)cc1 [Form B, 3-[2'-(N-benzoyl)sulfonamidobiphenyl-4-yl]methyl-5,7-dimethyl-2-ethyl-3H-imidazo[4,5-b]pyridine potassium salt]
ΔH solution DMSO at 30° C. ([1]; 30° C., listed as B): 17.78 ± 0.52 J/g
crystal form after stirring/shaking in acetonitrile ([2]; listed as B): changed to another new form ("J")
% Weight Loss (Δ 30-150° C. by TGA) ([3]; listed as B): 0.5%
hydration state ([3]; listed as B): anhydrous
equilibrium solubility in water, comparison of five polymorphs [4]: the same

Structure (SMILES): CCc1nc2c(C)cc(C)nc2n1Cc1ccc(-c2ccccc2S(=O)(=O)NC(=O)c2ccccc2)cc1 [Form C, 3-[2'-(N-benzoyl)sulfonamidobiphenyl-4-yl]methyl-5,7-dimethyl-2-ethyl-3H-imidazo[4,5-b]pyridine potassium salt]
ΔH solution DMSO at 30° C. ([1]; 30° C., listed as C): 29.75 ± 0.46 J/g
crystal form after shaking in acetonitrile-water ([2]; listed as C): converted to form "I"
crystal form after stirring/shaking in acetonitrile ([2]; listed as C): changed to another new form ("J")
% Weight Loss (Δ 30-150° C. by TGA) ([3]; listed as C): 0.6%
hydration state ([3]; listed as C): anhydrous

Further lines, with some results ahead:

ΔH solution 88% DMSO/12% H2O ([1]; 88% DMSO/12% H2O, 30° C., listed as D): -16.33 ± 1.61 J/g
ΔH solution DMSO at 30° C. ([1]; 30° C., listed as D): -1.36 ± 0.42 J/g
thermodynamic stability ([1]; from heats of solution and equilibrium solubility, listed as D): metastable with respect to "I"
crystal form after heating at 40° C. for 30 minutes ([5]; 40° C., 30 minutes): did not change
crystal form after suspension in water ([6]; listed as D): converted to form "I"
crystal form after shaking in acetonitrile-water ([2]; listed as D): the final crystal form was also "I"
% Weight Loss (Δ 30-150° C. by TGA) ([3]; listed as D): 12-14%
hydration state ([3]; listed as D): hydrated
solubility ([4]; water, Table I): 10.4 ± 0.7 mg/mL
Structure (SMILES): CCc1nc2c(C)cc(C)nc2n1Cc1ccc(-c2ccccc2S(=O)(=O)NC(=O)c2ccccc2)cc1 [Form D, 3-[2'-(N-benzoyl)sulfonamidobiphenyl-4-yl]methyl-5,7-dimethyl-2-ethyl-3H-imidazo[4,5-b]pyridine potassium salt]
crystal form after heating at 40° C. for 24 hours ([5]; 40° C., 24 hours): crystallinity was reduced and XRPD pattern changed to a new form called "F"
crystal form after heating up to 190° C. ([5]; up to 190° C., a few minutes): produced a new crystalline anhydrous form designated "G"
crystal form after stirring/shaking in acetonitrile ([2]; listed as D): converted to a new crystal form ("I"); also recorded: changed to form "I"

crystal form after suspension in water ([6]; listed as F): converted to form "D"
Structure (SMILES): CCc1nc2c(C)cc(C)nc2n1Cc1ccc(-c2ccccc2S(=O)(=O)NC(=O)c2ccccc2)cc1 [Form F, 3-[2'-(N-benzoyl)sulfonamidobiphenyl-4-yl]methyl-5,7-dimethyl-2-ethyl-3H-imidazo[4,5-b]pyridine potassium salt]

ΔH solution DMSO at 30° C. ([1]; 30° C., listed as G): 8.51 ± 0.66 J/g
crystal form after suspension in water ([6]; listed as G): converted to form "D"
% Weight Loss (Δ 30-150° C. by TGA) ([3]; listed as G): 0%
hydration state ([3]; listed as G): anhydrous
Structure (SMILES): CCc1nc2c(C)cc(C)nc2n1Cc1ccc(-c2ccccc2S(=O)(=O)NC(=O)c2ccccc2)cc1 [Form G, 3-[2'-(N-benzoyl)sulfonamidobiphenyl-4-yl]methyl-5,7-dimethyl-2-ethyl-3H-imidazo[4,5-b]pyridine potassium salt]

% Weight Loss (Δ 30-150° C. by TGA) ([3]; listed as J): 0.7%
Structure (SMILES): CCc1nc2c(C)cc(C)nc2n1Cc1ccc(-c2ccccc2S(=O)(=O)NC(=O)c2ccccc2)cc1 [Form J, 3-[2'-(N-benzoyl)sulfonamidobiphenyl-4-yl]methyl-5,7-dimethyl-2-ethyl-3H-imidazo[4,5-b]pyridine potassium salt]
